Measurements: ChEMBL document CHEMBL4825682, “Discovery of novel purinylthiazolylethanone derivatives as anti-Candida albicans agents through possible multifaceted mechanisms” (Eur J Med Chem, 2021)
Converted amounts (≈) assume the structure as drawn. The source made the active and inactive calls. No cut-off for these calls is given here.

How the values were obtained:
Candida albicans [1] = test: Antifungal activity against Candida albicans assessed as fungal growth inhibition by CLSI protocol based microbroth dilution method; format: functional
Candida albicans [2] = test: Antifungal activity against Candida albicans ATCC 90023 assessed as fungal growth inhibition by CLSI protocol based microbroth dilution method; format: functional
Candida tropicalis = test: Antifungal activity against Candida tropicalis assessed as fungal growth inhibition by CLSI protocol based microbroth dilution method; format: functional
Aspergillus fumigatus = test: Antifungal activity against Aspergillus fumigatus assessed as fungal growth inhibition by CLSI protocol based microbroth dilution method; format: functional
Candida parapsilosis = test: Antifungal activity against Candida parapsilosis ATCC 22019 assessed as fungal growth inhibition by CLSI protocol based microbroth dilution method; format: functional; details: Lodderomyces parapsilosis
[3] = Hemolytic activity in human RBC; format: cell-based, Erythrocyte; details: human red blood cells (erythrocytes)
Candida albicans [4] = test: Antifungal activity against Candida albicans measured after 8 passages; format: functional, organism-based

SMILES	MIC (Candida albicans [1]) [µg/mL]	MIC (Candida albicans [2]) [µg/mL]	MIC (Candida tropicalis) [µg/mL]	MIC (Aspergillus fumigatus) [µg/mL]	MIC (Candida parapsilosis) [µg/mL]	HC50 [3] [µg/mL]	Activity (Candida albicans [4])
O=C(Cn1cnc2c(N3CCOCC3)ncnc21)c1nccs1	64 (≈ 194 µM)	2 (≈ 6.05 µM)	32 (≈ 96.9 µM)	64 (≈ 194 µM)	2 (≈ 6.05 µM)	> 256	–
C#CCN1CCN(c2ncnc3c2ncn3CC(=O)c2nccs2)CC1	256 (≈ 697 µM)	16 (≈ 43.5 µM)	256 (≈ 697 µM)	32 (≈ 87.1 µM)	256 (≈ 697 µM)	> 256	–
O=C(Cn1cnc2c(N3CCCC3)ncnc21)c1nccs1	16 (≈ 50.9 µM)	32 (≈ 102 µM)	64 (≈ 204 µM)	32 (≈ 102 µM)	32 (≈ 102 µM)	> 256	–
CCO/N=C(/Cn1cnc2c(N3CCN(CC(=O)OCC)CC3)ncnc21)c1nccs1	64 (≈ 140 µM)	64 (≈ 140 µM)	128 (≈ 279 µM)	128 (≈ 279 µM)	128 (≈ 279 µM)	> 256	–
CCOC(=O)CN1CCN(c2ncnc3c2ncn3C/C(=N/O)c2nccs2)CC1	4 (≈ 9.29 µM)	16 (≈ 37.2 µM)	64 (≈ 149 µM)	16 (≈ 37.2 µM)	64 (≈ 149 µM)	> 256	–
Cc1ccc(CN2CCN(c3ncnc4c3ncn4CC(=O)c3nccs3)CC2)cc1	16 (≈ 36.9 µM)	128 (≈ 295 µM)	64 (≈ 148 µM)	64 (≈ 148 µM)	64 (≈ 148 µM)	> 256	–
C=CCN1CCN(c2ncnc3c2ncn3CC(=O)c2nccs2)CC1	4 (≈ 10.8 µM)	64 (≈ 173 µM)	32 (≈ 86.6 µM)	64 (≈ 173 µM)	8 (≈ 21.7 µM)	> 256	–
CCCCCCCCCCCCN1CCN(c2ncnc3c2ncn3CC(=O)c2nccs2)CC1	4 (≈ 8.04 µM)	16 (≈ 32.1 µM)	8 (≈ 16.1 µM)	16 (≈ 32.1 µM)	8 (≈ 16.1 µM)	> 256	–
O=C(Cn1cnc2c(N3CCCCCC3)ncnc21)c1nccs1	256 (≈ 748 µM)	8 (≈ 23.4 µM)	256 (≈ 748 µM)	64 (≈ 187 µM)	256 (≈ 748 µM)	> 256	–
O=C(Cn1cnc2c(N3CCNCC3)ncnc21)c1nccs1	64 (≈ 194 µM)	32 (≈ 97.1 µM)	32 (≈ 97.1 µM)	64 (≈ 194 µM)	256 (≈ 777 µM)	> 256	–
CCCCCCN1CCN(c2ncnc3c2ncn3CC(=O)c2nccs2)CC1	4 (≈ 9.67 µM)	16 (≈ 38.7 µM)	32 (≈ 77.4 µM)	128 (≈ 310 µM)	4 (≈ 9.67 µM)	> 256	–
CC(C)(C)OC(=O)N1CCN(C(=O)CN2CCN(c3ncnc4c3ncn4CC(=O)c3nccs3)CC2)CC1	32 (≈ 57.6 µM)	16 (≈ 28.8 µM)	64 (≈ 115 µM)	128 (≈ 230 µM)	128 (≈ 230 µM)	> 256	–
N#CCN(CC#N)C(=O)CN1CCN(c2ncnc3c2ncn3CC(=O)c2nccs2)CC1	16 (≈ 34.4 µM)	32 (≈ 68.9 µM)	64 (≈ 138 µM)	64 (≈ 138 µM)	128 (≈ 276 µM)	> 256	–
O=C(Cn1cnc2c(N3CCN(Cc4ccccc4F)CC3)ncnc21)c1nccs1	256 (≈ 585 µM)	2 (≈ 4.57 µM)	256 (≈ 585 µM)	32 (≈ 73.1 µM)	256 (≈ 585 µM)	> 256	–
CCN1CCN(c2ncnc3c2ncn3CC(=O)c2nccs2)CC1	32 (≈ 89.5 µM)	16 (≈ 44.8 µM)	16 (≈ 44.8 µM)	32 (≈ 89.5 µM)	256 (≈ 716 µM)	> 256	–
CCCCCCCCN1CCN(c2ncnc3c2ncn3CC(=O)c2nccs2)CC1	2 (≈ 4.53 µM)	256 (≈ 580 µM)	16 (≈ 36.2 µM)	64 (≈ 145 µM)	16 (≈ 36.2 µM)	> 256	–

SMILES	MIC (Candida albicans [1]) [µg/mL]	MIC (Candida albicans [2]) [µg/mL]	MIC (Candida tropicalis) [µg/mL]	MIC (Aspergillus fumigatus) [µg/mL]	MIC (Candida parapsilosis) [µg/mL]	HC50 [3] [µg/mL]	Activity (Candida albicans [4])
O=C(Cn1cnc2c(N3CCN(Cc4ccccc4Cl)CC3)ncnc21)c1nccs1	256 (≈ 564 µM)	2 (≈ 4.41 µM)	256 (≈ 564 µM)	64 (≈ 141 µM)	256 (≈ 564 µM)	> 256	–
O=C(Cn1cnc2c(N3CCN(CC(=O)N(C4CCCCC4)C4CCCCC4)CC3)ncnc21)c1nccs1	8 (≈ 14.5 µM)	256 (≈ 465 µM)	16 (≈ 29.1 µM)	32 (≈ 58.1 µM)	16 (≈ 29.1 µM)	> 256	–
OC(Cn1cncn1)(Cn1cncn1)c1ccc(F)cc1F [FLUCONAZOLE]	4 (≈ 13.1 µM)	2 (≈ 6.53 µM)	8 (≈ 26.1 µM)	256 (≈ 836 µM)	4 (≈ 13.1 µM)	> 256	Active
O=C(Cn1cnc2c(N3CCN(Cc4ccc(F)cc4)CC3)ncnc21)c1nccs1	32 (≈ 73.1 µM)	256 (≈ 585 µM)	64 (≈ 146 µM)	32 (≈ 73.1 µM)	256 (≈ 585 µM)	> 256	–
O=C(Cn1cnc2c(N3CCN(Cc4ccc([N+](=O)[O-])cc4)CC3)ncnc21)c1nccs1	8 (≈ 17.2 µM)	128 (≈ 276 µM)	64 (≈ 138 µM)	32 (≈ 68.9 µM)	64 (≈ 138 µM)	> 256	–
O=C(Cn1cnc2c(Cl)ncnc21)c1nccs1	64 (≈ 229 µM)	128 (≈ 458 µM)	32 (≈ 114 µM)	128 (≈ 458 µM)	64 (≈ 229 µM)	> 256	–
CCOC(=O)CN1CCN(c2ncnc3c2ncn3C/C(=N/OC)c2nccs2)CC1	8 (≈ 18 µM)	64 (≈ 144 µM)	64 (≈ 144 µM)	32 (≈ 72 µM)	128 (≈ 288 µM)	> 256	–
CCOC(=O)CN1CCN(c2ncnc3c2ncn3CC(O)c2nccs2)CC1 (stereo not drawn)	128 (≈ 307 µM)	64 (≈ 153 µM)	64 (≈ 153 µM)	32 (≈ 76.6 µM)	128 (≈ 307 µM)	> 256	–
O=C(Cn1cnc2c(N3CCN(Cc4ccc(Cl)cc4)CC3)ncnc21)c1nccs1	32 (≈ 70.5 µM)	128 (≈ 282 µM)	4 (≈ 8.81 µM)	64 (≈ 141 µM)	64 (≈ 141 µM)	> 256	–
O=C(Cn1cnc2c(N3CCN(CC(=O)N4CCCC4)CC3)ncnc21)c1nccs1	2 (≈ 4.54 µM)	256 (≈ 581 µM)	32 (≈ 72.6 µM)	64 (≈ 145 µM)	128 (≈ 291 µM)	> 256	–
CC(C)N(C(=O)CN1CCN(c2ncnc3c2ncn3CC(=O)c2nccs2)CC1)C(C)C	4 (≈ 8.5 µM)	16 (≈ 34 µM)	8 (≈ 17 µM)	32 (≈ 68 µM)	32 (≈ 68 µM)	> 256	–
O=C(Cn1cnc2c(N3CCCCC3)ncnc21)c1nccs1	1 (≈ 3.05 µM)	256 (≈ 780 µM)	64 (≈ 195 µM)	128 (≈ 390 µM)	64 (≈ 195 µM)	> 256	–
N#CCN1CCN(c2ncnc3c2ncn3CC(=O)c2nccs2)CC1	8 (≈ 21.7 µM)	256 (≈ 695 µM)	4 (≈ 10.9 µM)	16 (≈ 43.4 µM)	8 (≈ 21.7 µM)	> 256	–
CCCCN1CCN(c2ncnc3c2ncn3CC(=O)c2nccs2)CC1	4 (≈ 10.4 µM)	64 (≈ 166 µM)	128 (≈ 332 µM)	256 (≈ 664 µM)	64 (≈ 166 µM)	> 256	–
O=C(Cn1cnc2c(N3CCN(CCO)CC3)ncnc21)c1nccs1	1 (≈ 2.68 µM)	256 (≈ 686 µM)	64 (≈ 171 µM)	64 (≈ 171 µM)	128 (≈ 343 µM)	> 256	–
CCCCCCCCCCCCCCCCCCN1CCN(c2ncnc3c2ncn3CC(=O)c2nccs2)CC1	2 (≈ 3.44 µM)	256 (≈ 440 µM)	64 (≈ 110 µM)	32 (≈ 55 µM)	128 (≈ 220 µM)	> 256	–
